Assays:
[1] = test system: mouse model of psoriasis; assay: Mouse model of psoriasis (Aldar cream, 5% imiquimod): ear thickness and clinical signs; format: in vivo, female Balb/c mice; settings: Compound 1 30 mg/kg, Neotigason 5 mg/kg, M ± m, n = 20; for The gain of the ear thickness at the determined day of study to day 0, Day 2 / The gain of the ear thickness at the determined day of study to day 0, Day 3 / The gain of the ear thickness at the determined day of study to day 0, Day 4 / The gain of the ear thickness at the determined day of study to day 0, Day 5 / The gain of the ear thickness at the determined day of study to day 0, Day 6: intragastric once daily; for Clinical signs of psoriasis, Erythema, Day 4 / Clinical signs of psoriasis, Flakes, Day 4 / Clinical signs of psoriasis, Thickening, Day 4 / Clinical signs of psoriasis, Erythema, Day 6 / Clinical signs of psoriasis, Flakes, Day 6 / Clinical signs of psoriasis, Thickening, Day 6: score 0-4 (Table 1)
Description: (§1) The induction of psoriasis in mice was carried out according to the standard procedure [European Journal of Pharmacology. 2015. V. 756. P. 43-51]. Aldar cream (5% imiquimod) was applied to female Balb/c mice on the inner side of the right ear once daily by 30 mg/mouse for 7 days (0-6th day). Vaseline was applied to the intact animals. […] Euthanasia was carried out 24 hours later (7th day) after the last application of the Aldar cream. Daily on the 0, 2nd, 3rd, 4th, 5th, 6th day, the thickness of the right ear was measured in the morning before the next application of the Aldar cream and before the euthanasia. After the euthanasia, blood was collected from the heart cavities, serum was isolated. The content of MCP1 was determined in blood serum by an enzyme-linked immunosorbent assay method, using test systems Mouse CCL2 (MCP-1) Uncoated ELISA Kit (Invitrogen).
2011. V. 88(1-2). P. 100-113].

[2] = test system: MCP-1 (CCL2); assay: MCP-1 level in blood serum of mice on the psoriasis model (ELISA); format: in vivo, female Balb/c mice; settings: day 7, 30 mg/kg intragastric, M ± m, n = 10
Description: as §1

[3] = test system: neutrophil and macrophage chemotaxis (carrageenan pouch); assay: Macrophage and neutrophil chemotaxis model to the site of inflammation (carrageenan pouch) in mice; format: in vivo, female Balb/c mice
Description: The induction of macrophages and neutrophils chemotaxis to the site of inflammation (carrageenan pouch) in mice was tested according to the standard procedure [Curr Protoc Pharmacol. 2012. V. 5. P. 5-6]. […] After 3 days to maintain the integrity of the air pouch without increasing the wound, 2.5 ml of air was introduced at the same site. On day 6 under CO2 anesthesia to induce inflammation, 1 ml of 1% carrageenan solution prepared in physiological saline was administered directly into the pouch. The test compound was administered intragastrically 1 hour before the administration of carrageenan and then every 10-12 hours in the volume of 0.1 ml. The last administration is 12 hours before the slaughter. Euthanasia by the inhalation of CO2 was performed 48 hours after the carrageenan injection. Immediately after the euthanasia, 1 ml of physiological saline containing 5.4 mM of EDTA of room temperature was introduced into the pouch with a sterile syringe. After gentle massage of the region of the air pouch, a sagittal incision was made across the pouch and exudate was collected by a dispenser. After the centrifugation of the exudate from the cell pellet, smears were prepared, which were then fixed in methanol and were stained by Romanowsky-Giemsa. A quantity of macrophages and neutrophils was then determined on the smears under a microscope. The cell calculation was made up to 100 pcs.

[4] = test system: macrophage chemotaxis (thioglycolate peritonitis); assay: Macrophage chemotaxis to the site of inflammation (thioglycolate peritonitis) in mice; format: in vivo, male Balb/c mice
Description: The induction of macrophage chemotaxis to the site of inflammation (thioglycolate peritonitis) in mice were performed according to the standard procedure [J Leukoc Biol. 2009. V. 86.(2). P. 361-370]. Male Balb/c mice were intraperitoneally administered with 2 ml of 3% thioglycolic medium stored for 1 month. The preparation of thioglycolic medium was carried out as follows: 15 g of dry thioglycolic medium was stirred in 500 ml of distilled water, was boiled at 100° C. for 2 minutes, was filtered through a paper filter, was poured out by 50 ml in sterile tubes and was sterilized by autoclaving at 121° C. for 15 minutes. […]
After 72 hours, the animals were euthanized in a CO2-chamber and the peritoneum area was wetted with 70% alcohol, the skin on the abdominal cavity was carefully cut off, and 5 ml of a cold phosphate-saline buffer containing 0.1% of ethylenediamine tetraacetic acid was injected intraperitoneally with a syringe. After gentle massage of the abdominal cavity, the exudate was collected by a syringe into tubes, and the volume of the collected exudate was determined.
Smears were prepared from the cell pellet, which smears were further fixed in methanol (5 minutes) and stained by Romanowsky-Giemsa (40 min at 20-22° C.). On the smears, under the microscope Olympus bx51 (at magnification 100) the quantity of monocytes/macrophages was counted by the routine method. […]

[5] = test system: non-infectious pneumonia induced by cigarette smoke extract; assay: Non-infectious pneumonia induced by cigarette smoke extract, lung histology; format: in vivo, male Balb/c mice; settings: 30 mg/kg intragastric daily day 7-27, 5-point scale; M ± m, n = 12
Description: The induction of non-infectious pneumonia in mice was carried out according to the standard procedure [Zhang Yl, Cao J, Chen Y, Chen P, Peng H, Cai S, Luo H, Wu SJ. […] Male Balb/c mice were intraperitoneally administered with cigarette smoke extract (CSE, 0.45 ml/20 mg) at 0, 11th, 15th, 17th, 19th and 22nd day. The CSE was prepared as follows: 5 cigarettes were burnt, using a vacuum pump, the smoke was filtered to remove particles and collected in a vessel containing a phosphate saline buffer. […] Euthanasia was carried out on the 28th day. The right lung lobe was fixed in 10% neutral formalin solution, passed through the alcohols of ascending concentrations to xylene, and embedded in paraffin by standard procedures. Deparaffinated 5-micron shears were stained with hematoxylin-eosin and the histological analysis was carried out.
Each lesion was evaluated according to a 5-point scale: 1 point—the inflammatory infiltrate occupies 0-20% of the area of the histological preparation under study, 2 point—the inflammatory infiltrate occupies 21-40% of the area of the histological preparation under study, 3 points—the inflammatory infiltrate occupies 41-60% of the area of the histological preparation under study, 4 points—the inflammatory infiltrate occupies 61-80% of the area of the histological preparation under study, 5 points—the inflammatory infiltrate occupies 81-100% of the area of the histological preparation under study. Alveolar destruction index (DI) as the percentage of the damaged alveoli relative to the total number of alveoli was also calculated.

[6] = test system: non-infectious pneumonia induced by poly I:C; assay: Non-infectious pneumonia induced by intranasal administration of poly I:C to mice (BAL neutrophils, lung histology); format: in vivo, female Balb/c mice
Description: The induction of pneumonia in mice was carried out according to the standard procedure [Eur Respir J. 2013 V. 41(5). […] Female Balb/c mice were intranasally administered with 8 μg/kg of polyinosine-polycytidylic acid (poly I:C) in 30 μl of PBS on days 1, 2, 3 and 4. Then at days 15, 16, 17 and 18, in the same volume 2 μg/kg of poly I:C were administered to the animals. […] All mice were sacrificed on the 19th day of the study. The bronchus from the right lung was pinched by the ligature, the left lung was washed 3 times with 0.8 ml of the sterile PBS. After each administration of PBS into the lung, the gentle massage of the lung was carried out, PBS was drained by gravity. Finally, the final volume of the resulting bronchoalveolar lavage (BAL) was considered and written. A number of neutrophils was evaluated in the BAL (using the Diff-Quik staining). For histological study, the right lung lobe was fixed in 10% neutral formalin solution and embedded in paraffin by the standard procedure. Deparaffinated 5-micron shears were stained with hematoxylin-eosin. Each lesion was evaluated according to a 5-point scale: 1 point—the inflammatory infiltrate occupies 0-20% of the area of the histological preparation under study, 2 point—the inflammatory infiltrate occupies 21-40% of the area of the histological preparation under study, 3 points—the inflammatory infiltrate occupies 41-60% of the area of the histological preparation under study, 4 points—the inflammatory infiltrate occupies 61-80% of the area of the histological preparation under study, 5 points—the inflammatory infiltrate occupies 81-100% of the area of the histological preparation under study. Alveolar destruction index (DI) as the percentage of the damaged alveoli relative to the total number of alveoli was also calculated.

[7] = test system: acetic acid-induced abdominal constrictions; assay: Specific pain reaction by chemical stimulation of peritoneum (abdominal constriction test); format: in vivo, Balb/c mice; settings: 30 mg/kg intragastric, M ± m, n = 12
Description: The model of the specific pain reaction by the method of chemical stimulation of peritoneum (“abdominal constriction” test) was carried out according to the standard procedure. To conduct the “abdominal constriction” test, Balb/c mice were intraperitoneally administered with 1% acetic acid in a volume of 10 ml per kg of the animal body weight. The test compound was administered intragastrically, once, 1 or 2 hour(s) before the administration of acetic acid. A quantity of constrictions (convulsive twitching of the abdominal muscles accompanied with stretching hind quarters and arching) was evaluated 15 minutes after the administration of acetic acid.

[8] = test system: thermal pain irritation (hot plate); assay: Thermal pain irritation model hot plate; format: in vivo, Balb/c mice
Description: The model of thermal pain irritation “hot plate” was carried out according to the standard procedure [Valdman A. V., Ignatov Y. D. Central mechanisms of pain. L.: Nauka, 1976]. The test compound was administered to Balb/c mice intragastrically, once. After 1, 4, 6, 12, 24 hours after the administration of the preparation, the “hot plate” test was carried out. To conduct the “hot plate” test, the mice were placed on the hot plate, the temperature (+55±1° C.) of which is constant. The time of first manifestations of the pain response in mice (paw licking, jumping) was registered and the mean latent time of the threshold of pain sensitivity (TPS, sec) in each group was calculated.

[9] = 30 mg/kg intragastric, 48 hours after carrageenan, M ± m, n = 10
[10] = 30 mg/kg intragastric daily day 6-19, 5-point scale, M ± m, n = 7

Structure (SMILES)	The gain of the ear thickness at the determined day of study to day 0, Day 2 [1]	The gain of the ear thickness at the determined day of study to day 0, Day 3 [1]	The gain of the ear thickness at the determined day of study to day 0, Day 4 [1]	Clinical signs of psoriasis, Erythema, Day 4 [1]	Clinical signs of psoriasis, Flakes, Day 4 [1]	Clinical signs of psoriasis, Thickening, Day 4 [1]	The gain of the ear thickness at the determined day of study to day 0, Day 5 [1]	The gain of the ear thickness at the determined day of study to day 0, Day 6 [1]	Clinical signs of psoriasis, Erythema, Day 6 [1]	Clinical signs of psoriasis, Flakes, Day 6 [1]	Clinical signs of psoriasis, Thickening, Day 6 [1]	other results
O=C1CCCC(=O)N1CCc1cnc[nH]1 [Compound 1, 1-(2-(1H-imidazol-4-yl)ethyl)piperidine-2,6-dione]	7.8 ± 1.4& %	11.2 ± 1.9& %	33.8 ± 1.6& %	1.5 ± 0.1*& points	0.0 ± 0.0& points	0.9 ± 0.1*& points	46.9 ± 1.6*& %	55.8 ± 0.8*& %	1.3 ± 0.1*& points	0.1 ± 0.1& points	1.3 ± 0.1*& points	MCP-1 level in blood serum [2]: 113.7 ± 8.3 & pg/ml; Macrophages in the exudate from the carrageenan pouch [3, 9]: 0.6 ± 0.2 & ×10^9/l; Neutrophils in the exudate from the carrageenan pouch [3, 9]: 0.6 ± 0.1 & ×10^9/l; Quantity of neutrophils and macrophages in the pouch cavity ([3]; intragastric administration): to the level of intact animals; Macrophages in peritoneal exudate ([4]; 30 mg/kg intragastric, 72 hours after thioglycolate): 0.84 ± 0.16 & ×10^9/l; Quantity of macrophages in the peritoneal exudate ([4]; intragastric administration): to the level of intact animals; Interstitial pneumonia [5]: 1.08 ± 0.16& points; Peribronchitis [5]: 0.13 ± 0.07& points; Perivasculitis [5]: 1.03 ± 0.11& points; Interstitial pneumonia [6, 10]: 0.76 ± 0.1& points; Peribronchitis [6, 10]: 0.73 ± 0.32& points; Perivasculitis [6, 10]: 0.80 ± 0.31& points; Neutrophils in 1 μl Score (bronchoalveolar lavage) ([6]; 30 mg/kg intragastric daily day 6-19, M ± m, n = 7): 0.0 ± 0.0& in 1 μl; Influx of neutrophils into the bronchoalveolar space ([6]; intragastric administration): completely abolished; Quantity of constrictions for 15 minutes ([7]; 1 hour before the administration of acetic acid): 23.8 ± 3.7; Quantity of constrictions for 15 minutes ([7]; 2 hour before the administration of acetic acid): 22.7 ± 2.6; Increase of the threshold of pain sensitivity in the hot plate test ([8]; intragastric administration): 2 times
O=C(c1ccccc1)c1ccc2n1CCC2C(=O)O (centres unmarked) [Ketorol]	–	–	–	–	–	–	–	–	–	–	–	TPS, % to the values before the administration of the preparation, after 1 hours ([8]; 1 hour after single intragastric dose, Compound 1 30 mg/kg, Ketorol 15 mg/kg, M ± m, n = 12): 146.4 ± 16.6%; TPS, % to the values before the administration of the preparation, after 4 hours ([8]; 4 hours after single intragastric dose, Compound 1 30 mg/kg, Ketorol 15 mg/kg, M ± m, n = 12): 195.9 ± 30.0 %; TPS, % to the values before the administration of the preparation, after 6 hours ([8]; 6 hours after single intragastric dose, Compound 1 30 mg/kg, Ketorol 15 mg/kg, M ± m, n = 12): 176.6 ± 34.0%; TPS, % to the values before the administration of the preparation, after 12 hours ([8]; 12 hours after single intragastric dose, Compound 1 30 mg/kg, Ketorol 15 mg/kg, M ± m, n = 12): 166.5 ± 25.3%; TPS, % to the values before the administration of the preparation, after 24 hours ([8]; 24 hours after single intragastric dose, Compound 1 30 mg/kg, Ketorol 15 mg/kg, M ± m, n = 12): 159.7 ± 22.4%
COc1cc(C)c(/C=C/C(C)=C/C=C/C(C)=C/C(=O)O)c(C)c1C [Neotigason, reference compound]	14.2 ± 1.9*& %	27.5 ± 1.8*& %	45.9 ± 2.5*& %	1.2 ± 0.1*& points	0.0 ± 0.0& points	1.4 ± 0.1*& points	68.9 ± 1.8 %	83.1 ± 1.4 %	1.6 ± 0.1*& points	0 ± 0& points	1.3 ± 0.1*& points	–

— patent publication US11439631B2, “Use of a glutarimide derivative to treat diseases related to the aberrant activity of cytokines” (“CHEMIMMUNE THERAPEUTICS” LIMITED LIABILITY COMPANY, priority 2017, dated 2022)
